From patent publication US4618613A, “Preventive and healing composition for diseases due to lipoxygenase metabolic products” (Kyowa Hakko Kogyo Company, Ltd., priority 1983, dated 1986) come the findings set out here.

Structures can show the parent of a compound that is named as a salt. Where two headings read alike, the source gives them in different places.

For one assay, the target named is T1, 12-lipoxygenase (Bos taurus, UniProt F1MFA8).
T1 construct: a preparation prepared from bovine blood platelets was used as an enzyme source; from tissue; host or cells: bovine blood platelets
T1 sequence (F1MFA8 1-663): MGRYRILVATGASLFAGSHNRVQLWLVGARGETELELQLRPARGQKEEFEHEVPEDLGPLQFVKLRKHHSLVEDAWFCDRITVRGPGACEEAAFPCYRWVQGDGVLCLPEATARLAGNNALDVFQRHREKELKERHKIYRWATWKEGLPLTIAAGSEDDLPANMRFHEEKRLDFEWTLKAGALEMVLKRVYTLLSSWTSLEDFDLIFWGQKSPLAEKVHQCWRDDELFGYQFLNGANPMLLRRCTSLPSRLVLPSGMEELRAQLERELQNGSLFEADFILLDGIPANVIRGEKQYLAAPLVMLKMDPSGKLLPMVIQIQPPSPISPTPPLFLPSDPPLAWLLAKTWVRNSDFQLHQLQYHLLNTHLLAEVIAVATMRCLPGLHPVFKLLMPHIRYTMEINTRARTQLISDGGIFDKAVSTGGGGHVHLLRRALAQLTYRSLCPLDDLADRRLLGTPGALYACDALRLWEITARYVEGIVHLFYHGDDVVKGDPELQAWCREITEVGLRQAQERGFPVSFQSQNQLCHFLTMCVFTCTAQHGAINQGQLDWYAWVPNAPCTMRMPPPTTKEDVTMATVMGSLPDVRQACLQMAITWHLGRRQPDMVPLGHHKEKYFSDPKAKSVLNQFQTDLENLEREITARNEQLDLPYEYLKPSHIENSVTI
As to the kind of experiment: inhibiting action upon blood platelet 12-lipoxygenase. It is filed as biochemical, bovine. To be noted: for inhibition at 1000 µM: pH 7.4, with 1,000 μM of each compound, read-out: 12-lipoxygenase, inhibiting ratio. On the procedure:
(§1) An inhibiting action of 2-n-heptyl-4-hydroxyquinoline-N-oxide upon lipoxygenase was determined by in vitro test according to the following procesure:
(a) Procedure for determining the inhibiting action upon blood platelet 12-lipoxygenase:
Determination was carried out according to D. H. Nugtern, et al, procedure (Biochem. Biophys. Acta, 380, 299 (1975)). That is, a preparation prepared from bovine blood platelets was used as an enzyme source. The blood platelet lipoxygenase preparation and 2-n-heptyl-4-hydroxyguinoline-N-oxide were brought into contact with each other in a 0.01M tris hydrochloric acid buffer solution (pH 7.4) at 30° C. for 5 minutes in advance, and then 35 μM of [^14 C]arachidonic acid was added thereto. The mixture was incubated at 30° C. for 10 minutes. The reaction product was extracted with ethyl acetate/methanol/0.2M citric acid (30/4/1), and then separated by thin layer chromatography (developing solvent system: ligroin/ethyl ether/acetic acid: (50/50/1). The spot of 12-hydroxy-5,8,10,14-eicosatetraenoic acid in the product was scraped off and ^14 C was measured by a liquid scintillation counter.
(§2) Inhibiting actions of compounds in Table 2 upon lipoxygenase were determined in the same manner as in Test Example 1.

The target in another assay is T2, 5-lipoxygenase (Rattus norvegicus, UniProt P12527).
T2 construct: leukemic basophilic granulocyte cells of rats (RBL-1, ATCC No. CRL 1378) were used as a 5-lipoxygenase enzyme source; host or cells: RBL-1 (rat basophilic leukemia cells)
T2 sequence (P12527 1-673): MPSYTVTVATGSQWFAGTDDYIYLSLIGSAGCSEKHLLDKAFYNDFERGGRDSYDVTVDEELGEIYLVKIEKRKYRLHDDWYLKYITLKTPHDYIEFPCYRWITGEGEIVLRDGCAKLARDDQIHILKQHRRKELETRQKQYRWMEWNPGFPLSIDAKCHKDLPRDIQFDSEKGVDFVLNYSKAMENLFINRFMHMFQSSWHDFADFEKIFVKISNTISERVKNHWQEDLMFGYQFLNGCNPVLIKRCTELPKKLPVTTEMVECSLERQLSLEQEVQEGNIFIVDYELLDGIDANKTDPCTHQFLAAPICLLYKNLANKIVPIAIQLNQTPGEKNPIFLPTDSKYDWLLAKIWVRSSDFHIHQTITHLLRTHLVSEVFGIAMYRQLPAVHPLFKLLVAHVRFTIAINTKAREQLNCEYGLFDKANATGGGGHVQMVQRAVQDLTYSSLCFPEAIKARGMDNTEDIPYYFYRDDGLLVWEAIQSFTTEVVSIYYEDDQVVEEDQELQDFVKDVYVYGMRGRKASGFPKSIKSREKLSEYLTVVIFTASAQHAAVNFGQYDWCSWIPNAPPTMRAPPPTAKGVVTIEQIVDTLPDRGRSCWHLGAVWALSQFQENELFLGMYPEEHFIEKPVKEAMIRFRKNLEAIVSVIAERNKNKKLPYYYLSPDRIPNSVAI
Nature of the assay: inhibiting action upon leukocyte 5-lipoxygenase (RBL-1 cells as enzyme source). The format is biochemical. On the procedure:
as §1
(b) Procedure for determining the inhibiting action upon leukocyte 5-lipoxygenase:
Determination was carried out according to modified B. A. Jakschik, et al, procedure (Biochem. Biophys. Res. Commun. 95, 103 (1980)). That is, leukemic basophilic granulocyte cells of rats (RBL-1, ATCC No. CRL 1378) were used as a 5-lipoxygenase enzyme source. The cells and 2-n-heptyl-4-hydroxyquinoline-N-oxide were brought into contact with each other in a 0.07 M tris hydrochloric acid buffer solution in the presence of 0.7 mM calcium chloride at 37° C. for 5 minutes, and then 20 μM of [^14 C]-arachidonic acid was added thereto. The mixture was incubated at 37° C. for 5 minutes. The reaction product was extracted with ethyl acetate/methanol/0.2M citric acid (30/4/1), and then separated by thin layer chromatography (developing solvent: petroleum ether/ethyl ether/acetic acid: 50/50/1). Spots of 5-hydroxy-[…]-eicosatetraenoic acid in the product were scraped off and ^14 C was measured by a liquid scintillation counter.
as §2

Another assay relates to SRS-A production. As to the kind of experiment: suppressing action upon production of SRS-A (lung pieces of actively sensitized guinea pigs, EWA challenge). It is filed as cell-based, guinea pig. To be noted: for inhibition at 8.3 µg/mL: 8.3 μg/ml; for suppression of the production of SRS-A (in words): Table 4, 8.3 μg/ml. On the procedure:
An inhibiting action of 2-n-heptyl-4-hydroxyquinoline-N-oxide upon SRS-A production was determined according to the following procedure:
According to Watanabe-Kohno and Parker procedure (J. Immunol., 125, 946 (1980)), 20 mg of egg white albumin (hereinafter abbreviated as EWA), was dissolved in 10 ml of physiological saline solution, and the resulting solution was added to an equal volume of Freund's complete adjuvant to prepare an emulsion. Then, 1 ml of the emulsion was administered subcutaneously in the plantar surface of the hind paws of guinea pigs to make the animals actively sensitized. Three to five weeks thereafter, the guinea pigs were sacrified by exsanguination from the carotid artery, and the Tyrode's solution was perfused through right cardiac ventricle to wash lungs and remove blood. Then, the lungs were isolated and cut to pieces of about 2 mm size in the chilled Tyrode's solution with scissors, filtered through 2 sheets of gauze. Then, 400 mg of the fragments were distributed into individual test tubes containing 5 ml of the Tyrode's solution. The lung pieces were preincubated at 37° C. for 10 minutes, 0.5 ml of a test solution at various concentrations was added thereto, and the incubation was continued for 10 minutes at 37° C. Then, 0.5 ml of EWA (20 mg/ml) was added thereto, and the mixture was further incubated for 15 minutes. The reaction was discontinued by ice-cooling the mixture, and then the mixture was filtered through a sheet of gauze.
(§3) The amount of SRS-A in the filtrate was bioassayed using guinea pig ileum according to the Magnus procedure. That is, the ileums were suspended in 10 ml of organ bath filled with the Tyrode's solution (31 ±1° C., aerated with 95% O2 +5% CO2 gas mixture), and their movements were recorded on a recorder with a pen (Hitachi: QPD54) through an isotonic transducer (Nihon Koden: JD112S). After the ileum contraction reaction by 10^-7 M histamine was stabilized, 1 ml of the filtrate was added to the organ bath in the presence of 5 x 10^-7 M atropine and 10^-6 M tripelennamine to cause the ileum contraction reaction. It was known that the ileum contraction reaction by SRS-A was increased by repetitive applications and, therefore, after the reaction by at least 5 applications of the SRS-A prepared in advance became constant, control filtrate and a filtrate containing a test solution were used.
Suppressing actions of 2-n-propyl-4-hydroxyquinoline-N-oxide and 2-n-undecyl-4-hydroxyquinoline-N-oxide upon production of SRS-A were determined in the same manner as in Test Example 3.

Assay [1] deals with airway contraction reaction of passively sensitized guinea pigs. As to the kind of experiment: suppressing action upon anaphylactic airway contraction reaction of passively sensitized guinea pigs. It is filed as in vivo, guinea pig. To be noted: 10 mg/kg P.O. one hour before antigen EWA (1 mg/kg); 6 guinea pigs vs 18 control. As for the experimental part:
Suppressing action of 2-n-heptyl-4-hydroxyquinoline-N-oxide upon the airway contraction reaction of passively sensitized guinea pigs was determined according to the following procedure:
Anaphylactic airway contraction reaction of passively sensitized guinea pigs by antigen administration was determined according to modified Konzett and Rossler procedure (Arch. exp. Path. Pharmakol., 195, 71 (1940)). Anti-EWA guinea pig serum (1 ml/animal) was intraperitoneally administered into normal guinea pigs to make the animals passively sensitized, and 24 hours thereafter, a tracheal cannule was inserted and fixed to the guinea pig under urethane anesthesia. An artificial respirator and a bronchospasm transducer were connected to the cannule. After the spontaneous respiration was stopped by intravenous injection of 10 mg/kg of gallamine triethiodide, 1 mg/kg of EWA was injected into the jugular vein to cause anaphylactic airway contraction, and the volume of air overflow from the tracheal cannule sideway was recorded on a polygraph through the transducer. After the end of measurement, the trachea was completely blockaded. The state of complete blockade was regarded as a maximum contraction, and the results were given in percentage to the maximum contraction.

Another assay relates to SRS-A. Nature of the assay: guinea pig ileum contraction reaction by SRS-A (Magnus procedure). To be noted: 3×10^-7 M. On the procedure:
as §3

Where [2] appears, read: Table 2, same manner as Test Example 1.
Where [3] appears, read: Cavia porcellus, read-out: Suppressing ratio, production of SRS-A.

One may read the IC50 as the concentration that gives 50% inhibition. Take `CCCc1cc(O)c2ccccc2[n+]1[O-]` [2-n-propyl-4-hydroxyquinoline-N-oxide]: the inhibition at 1000 µM at 12-lipoxygenase (10 min) stood at 46.3%. Further, the IC50 against 5-lipoxygenase (setting [2]) was 110 µM. In addition, the inhibition at 8.3 µg/mL in the assay with SRS-A production (setting [3]) was determined as 34.1%. Moreover, in the assay with SRS-A production, the “suppression of the production of SRS-A (in words)” value is listed as “suppress the production of SRS-A”.
Consider `CCCCCCCCCCCCCCCc1cc(O)c2ccccc2[n+]1[O-]` [2-n-pentadecyl-4-hydro-xy-quinoline-N--oxide], for which the inhibition at 1000 µM at 12-lipoxygenase (10 min) was 56%. Half-maximal inhibition against 5-lipoxygenase (setting [2]) (IC50) required 1 µM.
With `NC1=NN(c2cccc(C(F)(F)F)c2)CC1` [BW-755C, 3-amino-1-(3-trifluoromethylphenyl)-2-pyrazoline hydrochloride, reference compound], on 12-lipoxygenase (bovine blood platelet preparation, 35 μM [14C]arachidonic acid, pH 7.4, 30° C., 10 min, read-out: IC50, 12-lipoxygenase), the IC50 amounted to 25 µM. Moreover, the inhibition at 40 µg/mL in the assay with SRS-A production (Cavia porcellus, 40 μg/ml, read-out: Suppressing ratio, production of SRS-A) was found to be 23.8 ± 8.8%.
Consider `CCCCCCCCCCCc1cc(O)c2ccccc2[n+]1[O-]` [2-n-undecyl-4-hydroxyquinoline-N-oxide], for which, at 12-lipoxygenase (10 min), the inhibition at 1000 µM came out at 55.7%. On 5-lipoxygenase (setting [2]), 0.2 µM corresponded to half-maximal inhibition (IC50). Besides, in the assay on SRS-A production (setting [3]), the inhibition at 8.3 µg/mL came out at 17.5%. Also, the “suppression of the production of SRS-A (in words)” value in the assay with SRS-A production was “suppress the production of SRS-A”.
In turn, `CCCCCCCc1cc(O)c2ccccc2[n+]1[O-]` [2-n-heptyl-4-hydroxyquinoline-N-oxide] came in with an IC50 at 12-lipoxygenase of 30 µM. For the same molecule, the “inhibiting action upon 12-lipoxygenase compared with BW-755C” value at 12-lipoxygenase (in words) is listed as “almost equal to that of known compound”. Also, on 5-lipoxygenase, it took 0.15 µM to reach half-maximal inhibition (IC50). For the same molecule, on 5-lipoxygenase (in words), the “inhibiting action upon 5-lipoxygenase compared with BW-755C” value was “much better in the present compound”. Further, the “formation of SRS-A (in words)” value in the assay on SRS-A production (4, 40, and 400 μg/ml) is “suppressed by application of 4, 40, and 400 μg/ml of the present compound in a dose dependent manner”. Also, in the assay with SRS-A production (setting [3]), the inhibition at 4 µg/mL amounted to 26.2 ± 4.2%, the inhibition at 40 µg/mL worked out at 60.1 ± 3.7% and the inhibition at 400 µg/mL came out at 84.3 ± 1.1%. Further, the “intensity of SRS-A suppression compared with BW-755C” value in the assay on SRS-A production (in words, measured at the same time) is “obviously better than the suppressing action of BW-755C”. In assay [1], the “suppression of airway contraction reaction (increase in air overflow)” value is “significantly suppressed”.
On to `CCCc1c(OCC(O)COc2ccc3c(=O)cc(C(=O)O)oc3c2CCC)ccc(C(C)=O)c1O` (centres unmarked) [FPL-55712], for which the “suppression of ileum contraction reaction by SRS-A” value in the assay on SRS-A is on record as “almost completely suppressed”.
